The test system of the assay is HEK293FT cells transfected with TF library. The assay can be described thus: Screening of TF condensates based on fluorescent puncta. The following applies: Figure 1B numerical data; TF library screen, one value per transcriptional factor. Type of assay: cell-based. On the procedure: TF plasmids were automatically added to black-walled 384-well plates at 80 ng per well to reach a final concentration of 1.6 μg/ml. Polyethylenimine (PEI, Sigma) was then added to the plasmid-loaded plates at 240 ng per well (4.8 μg/ml). Subsequently, HEK293FT cells were seeded into the plate at 2000 cells per well. After 60 h, cells were cultured in medium with or without glucose for 12 h, and then fixed with 4% paraformaldehyde (PFA) at room temperature for 30 min. After three washes with PBS, fixed cells were permeabilized with 0.05% Triton X-100 for 15 min. Thereafter, cells were blocked with 5% BSA for 1 h, and then incubated overnight with anti-Flag (Sigma F3165, 1:200) and anti-GAL4 (Abbkine ABP57232, 1:200) primary antibodies at 4 °C. The cells were then gently washed with PBS, followed by being incubated with Alexa Fluor Plus 488 goat anti-mouse IgG secondary antibody (Thermo A32723, 1:400) or Alexa Fluor Plus 488 goat anti-rabbit IgG secondary antibody (Thermo A32731, 1:400) for 1 h. The plates were kept at 4 °C in the dark before being analyzed using an Opera System (Perkin Elmer). Fifty random fields per well were scanned and analyzed using the Columbus Plus Image Data Storage and Analysis System (Perkin Elmer).

As to SP4, the “Z score of condensed fraction” value was found to be 0.4803.
The result for ZBTB14 reads -0.8092; that for TAF11, -0.1333; that for DYRK1B, -0.5775.
The result for ZSCAN23 reads 0.2133; that for MAD2, -0.8457.
For ZBTB8A, the “Z score of condensed fraction” value was 0.3848.
With ZNF230 the figure was 0.8569.
The result for RERE reads -0.9918; that for ZNF626, 2.964.
The result for PSMC3 reads 1.134.
Turning to ZNF197, the “Z score of condensed fraction” value is listed as -0.8156.
The result for HDGF reads 2.149; that for MEOX1, -0.5142.
For COPEB, the “Z score of condensed fraction” value is reported as -0.3064.
On to TADA1L, for which the “Z score of condensed fraction” value is -0.6293.
With MAFG the figure was 0.65.
For the substance EGR2, the “Z score of condensed fraction” value is -0.8859.
The result for ZNF549 reads 2.12; that for TULP4, -0.4703.
The result for DLX6 reads -0.9336; that for ZNF329, -0.4972; that for BMAL1, -0.6251.
With DOUBLESEX the figure was -0.4806; with ETS2, -0.1278; with NRBF2, -0.07151.
As to ZBTB16, the “Z score of condensed fraction” value is 0.8279.
With TFAP2C, the “Z score of condensed fraction” value amounted to 1.42.
With EHF the figure was -0.3879; with ZNF670, 2.5783.
The result for ZNF175 reads -0.614; that for PITX1, 0.6327.
In the case of ZNF221, the “Z score of condensed fraction” value is listed as -0.687.
Take ARNT2: the “Z score of condensed fraction” value is -0.9281.
With ZSCAN2 the figure was -0.2191.
With ZNF227 the figure was -1.039.
The result for NKX3-2 reads 1.062.
In the case of HOX11L2/RNX, the “Z score of condensed fraction” value came to 0.134.
With PNRC2 the figure was 0.4868.
The result for ZNF707 reads 0.9339; that for ZNF254, 0.4246; that for ZFP161, -0.4432.
With TLX2 the figure was -0.3265; with BIRC3, -0.652.
On to SOX17, for which the “Z score of condensed fraction” value is on record as 0.6231.
The result for HOXA6 reads 1.681.
The result for CSDA reads -0.8745.
The result for ZNF345 reads -1.14; that for COPS5, -0.1538; that for ZNF548, 1.7562.
In the case of HOXB8, the “Z score of condensed fraction” value is listed as -0.6846.
The result for PAX6 reads -0.2168; that for ELK4, 0.361; that for ZNF257, 0.03056.
The result for ZNF133 reads -0.4329; that for ZNF136, -0.8979.
The result for ZNF596 reads -0.5741; that for MECOM, -0.8438.
In the case of KLF13, the “Z score of condensed fraction” value is reported as -0.9454.
For the substance SOX14, the “Z score of condensed fraction” value was found to be 0.5877.
ZNF747: the “Z score of condensed fraction” value is on record as 1.603.
With HOXA3 the figure was -0.6169.
For the substance ZSCAN22, the “Z score of condensed fraction” value is given as -0.5621.
The result for ST18 reads -0.7086.
On to ZNF556, for which the “Z score of condensed fraction” value was -0.2629.
With SP7 the figure was -0.6845; with MSX1, -0.7505; with DLX5, -0.5192.
With OTX1 the figure was -0.7284; with HOXC11, -0.01391.
The result for NFIC reads -0.8557; that for ZNF695, -0.08978.
On to ZNF785, for which the “Z score of condensed fraction” value is given as -0.4418.
With EPAS1 the figure was -0.6882.
Consider RREB1, for which the “Z score of condensed fraction” value is given as -1.018.
With SPIB the figure was -0.6455; with ZNF540, -0.9698; with ZNF57, 0.3.
The result for ZNF768 reads -0.6686; that for ZNF679, -1.052; that for NR5A1, -0.8082.
With ANKRD1 the figure was 1.047; with GATA3, -0.2833.
On to KLF15, for which the “Z score of condensed fraction” value came to 0.8588.
The result for BTEB1 reads -0.01224; that for ETV6, -0.2068.
With PRDM4 the figure was -0.7551.
The result for LHX6 reads -0.2026; that for MTF1, 0.05882.
DMBX1: the “Z score of condensed fraction” value was -0.1986.
The result for NH1H1 reads -0.5104; that for ZNF37A, -0.5462; that for ZNF223, 0.1367.
With HOXD12 the figure was 0.1237; with HOXD4, -0.2008.
With ZNF680 the figure was -0.6442.
SUMO1: the “Z score of condensed fraction” value is reported as -0.2512.
With SOX11, the “Z score of condensed fraction” value was 1.034.
The result for ZNF417 reads 1.093.
The result for PHOX2A reads 0.2668; that for EGR3, 0.2174.
The result for ZNF529 reads -0.8409; that for XRCC6, -0.8161; that for TAL2, 1.36.
Regarding BACH2, the “Z score of condensed fraction” value is listed as 2.257.
In the case of ELF1, the “Z score of condensed fraction” value is given as 3.027.
With ZNF689 the figure was -0.54; with LYL1, -0.8803; with ZNF677, -0.6787.
With PITX3 the figure was 1.221; with ZFP238, -0.7406.
With GLI2 the figure was -0.605.
ZDHHC17: the “Z score of condensed fraction” value amounted to 0.6824.
Turning to FIGLA, the “Z score of condensed fraction” value came to 0.3984.
The result for DMRTB1 reads 1.668; that for HOXC10, -0.2628.
The result for ZNF320 reads 0.5251; that for HOXC9, -0.7207; that for PCBD2, -0.6918.
With SOX21 the figure was -0.645; with HOXB4, -1.061; with CFOS, 0.6801.
As for ZNF333, the “Z score of condensed fraction” value is recorded as -0.8758.
With LHX8 the figure was -0.6943.
The result for AP-2A reads 0.4428.
On to ZNF177, for which the “Z score of condensed fraction” value is listed as -0.2364.
The result for KLF9 reads -0.8423; that for ZNF517, -0.6071.
With ZNF496 the figure was 0.02283; with HOXB7, 0.6165; with SOX5, -1.09.
With PRDM13 the figure was -0.08172; with HOXA11, -0.6499.
For PHOX2B, the “Z score of condensed fraction” value is on record as -1.179.
The result for SSX1 reads 0.2068.
Take CREB1: the “Z score of condensed fraction” value was -0.9562.
Take WIZ: the “Z score of condensed fraction” value was -0.9233.
With ZFP37 the figure was -0.4393; with ZNF404, -1.0199; with HOXA9, -1.01.
Regarding ELK3, the “Z score of condensed fraction” value stood at 0.04681.
The result for PAX2 reads -1.114.
The result for HMGN3 reads 1.967.
The result for TAL1 reads 1.608; that for ZNF454, -0.2763; that for ZNF267, 2.62.
Consider ZNF212, for which the “Z score of condensed fraction” value was -0.4443.
Consider PRDM1, for which the “Z score of condensed fraction” value is -0.6129.
For EED, the “Z score of condensed fraction” value is recorded as -1.11.
With ZNF273 the figure was -0.8812; with VSX2, 2.883.
With HOXD10 the figure was -0.4162; with ARX, -0.4034.

For the origin of these results see PMC11574045, “A cofactor-induced repressive type of transcription factor condensation can be induced by synthetic peptides to suppress tumorigenesis” (The EMBO Journal, 2024).
